The values that follow are results of earlier work, collected in patent publication US20170368150A1, “METHODS OF TREATING PULMONARY SARCOIDOSIS” (GOTHAM BIOPHARMACEUTICALS, INC., priority 2014, published 2017).

In data set [1] the test system is people with uveal sarcoidosis. As to conditions: in vivo.
The next data set has as its system sarcoidosis patients. The conditions noted are these: human, in vivo.
Data set [2] deals with persons with pulmonary sarcoidosis. The conditions noted are these: clinical trials.

Turning to Etanercept, the “efficacy in uveal sarcoidosis” value in data set [1] is on record as “failed to demonstrate any significant efficacy”.
Consider Adalimumab, for which, in the data set with sarcoidosis patients, the “fraction of sarcoidosis patients with beneficial response” value is “about half”.
As for golimumab, the “efficacy in pulmonary sarcoidosis” value in data set [2] is recorded as “failed to show any benefit”.
For Infliximab, in data set [2], the “efficacy in pulmonary sarcoidosis” value is reported as “some success”.
